# In patent US7741283B2, “Compositions and methods for inhibiting cell proliferation” (St. Louis University, priority 2003, dated 2010):
# Where a SMILES comes first, the peptide text is derived from it. The star is where a group is joined. Cbz = O=C(OCc1ccccc1)*
# Key:
# IRS-2 = assay: 32P metabolic labeling and immunoprecipitation of IRS-2, Mv1Lu cells; format: cell-based, mink; conditions: for Effect of proteolysis inhibitors on IGFBP-3-induced mobility change of IRS-2: Mv1Lu, 1 hr prior to and during IGFBP-3 treatment
# acidic pH binding sites [1] = target: T1, acidic pH binding sites (Mus musculus, UniProt P14824); assay: Specific binding of 125I-ligands to MEF cells at acidic pH; conditions: for Inhibition of ^125I-α2M* binding to cells: MEF cells, pH 5.5, verapamil and W-5 at 100 μM; for Specific binding of ^125I-α2M*: 10 μM protein, pH 5.5, MEF
# T1 sequence (P14824 2-673): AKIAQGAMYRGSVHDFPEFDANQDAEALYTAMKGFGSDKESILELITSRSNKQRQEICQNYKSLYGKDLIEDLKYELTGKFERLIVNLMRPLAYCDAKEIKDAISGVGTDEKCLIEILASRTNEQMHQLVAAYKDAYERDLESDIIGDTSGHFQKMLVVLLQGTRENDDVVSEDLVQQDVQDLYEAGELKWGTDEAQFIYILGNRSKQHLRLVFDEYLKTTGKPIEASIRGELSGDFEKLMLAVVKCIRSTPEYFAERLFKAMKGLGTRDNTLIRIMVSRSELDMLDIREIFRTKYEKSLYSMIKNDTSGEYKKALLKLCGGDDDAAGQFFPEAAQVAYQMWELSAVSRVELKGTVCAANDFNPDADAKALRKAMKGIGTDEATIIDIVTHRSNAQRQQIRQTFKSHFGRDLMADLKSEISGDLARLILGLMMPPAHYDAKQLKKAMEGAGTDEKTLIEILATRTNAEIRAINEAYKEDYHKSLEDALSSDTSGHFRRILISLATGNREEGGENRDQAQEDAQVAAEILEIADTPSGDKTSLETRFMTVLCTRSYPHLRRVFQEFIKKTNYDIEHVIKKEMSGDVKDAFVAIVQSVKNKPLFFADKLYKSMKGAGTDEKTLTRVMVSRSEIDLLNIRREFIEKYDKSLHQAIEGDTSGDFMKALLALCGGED
# acidic pH binding sites [2] = target: acidic pH binding sites (Neogale vison, UniProt A0A8C7BSJ2); assay: Specific binding of 125I-ligands to Mv1Lu cells at acidic pH; parameters: species or system mink; conditions: for Specific binding of ^125I-α2M*: 10 μM protein, pH 5.5, Mv1Lu
# LRP-1 [3] = assay: 125I-α2M* binding to Mv1Lu cells at pH 7.4; parameters: species or system mink; conditions: for ^125I-α2M* binding to LRP-1: 10 μg/ml, neutral pH, Mv1Lu cells; for ^125I-α2M* binding: 10 μM protein, pH 7.4, Mv1Lu
# Mv1Lu cells [4] = assay: Internalization and degradation of cell surface-bound 125I-TGF-β1 or 125I-α2M*, Mv1Lu cells; format: cell-based, mink; conditions: 10 μM, pH 7.4, 1 hr at 37° C.
# Protocol: After 1 hr at 37° C., the medium was collected and precipitated with 10% trichloroacetic acid (TCA). The TCA-soluble radioactive material in the medium represented the cellular degradation products of 125I-TGF-β1 or 125I-α2M*. The cells were then treated with trypsin (5 mg/ml), maintained for 20 min at 0° C. and centrifuged. The radioactivity in the supernate and cell pellets represented cell surface-bound and internalized 125I-TGF-β1 or 125I-α2M*, respectively. The experiments were performed in quadruplicate.
# After 2.5 hr, cells were washed, then warmed to 37° C.
# acidic pH binding sites [5] = target: T1, acidic pH binding sites; assay: Specific binding of 125I-ligands to PEA-13 cells at acidic pH; parameters: endogenous in cells; host or cells: PEA-13 (LRP-1-deficient mouse embryonic fibroblasts); conditions: for Specific binding of ^125I-α2M*: 10 μM protein, pH 5.5, PEA-13
# LRP-1 [6] = target: T2, LRP-1 (Mus musculus, UniProt Q91ZX7); assay: 125I-α2M* binding to MEF cells at pH 7.4; conditions: for ^125I-α2M* binding: 10 μM protein, pH 7.4, MEF
# T2 construct: endogenous in cells; host or cells: MEF (mouse embryonic fibroblasts)
# Mv1Lu cells [7] = assay: [methyl-3H] thymidine incorporation (DNA synthesis), Mv1Lu cells; format: cell-based, mink; conditions: insulin 10 nM or cyclic RGD peptide 0.01 μg/ml alone
# Chain of acidic pH binding sites (Neogale vison, UniProt A0A8C7BSJ2) (A0A8C7BSJ2 entry or part of it): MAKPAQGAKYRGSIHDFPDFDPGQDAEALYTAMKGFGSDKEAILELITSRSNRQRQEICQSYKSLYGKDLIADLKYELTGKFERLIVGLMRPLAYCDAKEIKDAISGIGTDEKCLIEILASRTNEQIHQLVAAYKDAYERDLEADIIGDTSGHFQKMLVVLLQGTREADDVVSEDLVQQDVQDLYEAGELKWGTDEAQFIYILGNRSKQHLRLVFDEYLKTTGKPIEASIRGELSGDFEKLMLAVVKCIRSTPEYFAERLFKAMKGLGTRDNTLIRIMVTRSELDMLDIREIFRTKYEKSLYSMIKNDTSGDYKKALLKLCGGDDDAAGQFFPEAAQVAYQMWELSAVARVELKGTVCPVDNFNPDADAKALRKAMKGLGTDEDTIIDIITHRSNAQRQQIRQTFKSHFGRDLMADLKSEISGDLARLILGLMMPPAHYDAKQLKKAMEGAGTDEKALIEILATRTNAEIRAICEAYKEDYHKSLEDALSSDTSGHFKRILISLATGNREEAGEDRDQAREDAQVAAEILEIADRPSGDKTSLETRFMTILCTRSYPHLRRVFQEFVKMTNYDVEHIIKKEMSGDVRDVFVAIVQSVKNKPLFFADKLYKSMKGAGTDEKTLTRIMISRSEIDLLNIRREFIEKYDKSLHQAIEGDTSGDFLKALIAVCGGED
# T2 sequence (Q91ZX7 20-4545): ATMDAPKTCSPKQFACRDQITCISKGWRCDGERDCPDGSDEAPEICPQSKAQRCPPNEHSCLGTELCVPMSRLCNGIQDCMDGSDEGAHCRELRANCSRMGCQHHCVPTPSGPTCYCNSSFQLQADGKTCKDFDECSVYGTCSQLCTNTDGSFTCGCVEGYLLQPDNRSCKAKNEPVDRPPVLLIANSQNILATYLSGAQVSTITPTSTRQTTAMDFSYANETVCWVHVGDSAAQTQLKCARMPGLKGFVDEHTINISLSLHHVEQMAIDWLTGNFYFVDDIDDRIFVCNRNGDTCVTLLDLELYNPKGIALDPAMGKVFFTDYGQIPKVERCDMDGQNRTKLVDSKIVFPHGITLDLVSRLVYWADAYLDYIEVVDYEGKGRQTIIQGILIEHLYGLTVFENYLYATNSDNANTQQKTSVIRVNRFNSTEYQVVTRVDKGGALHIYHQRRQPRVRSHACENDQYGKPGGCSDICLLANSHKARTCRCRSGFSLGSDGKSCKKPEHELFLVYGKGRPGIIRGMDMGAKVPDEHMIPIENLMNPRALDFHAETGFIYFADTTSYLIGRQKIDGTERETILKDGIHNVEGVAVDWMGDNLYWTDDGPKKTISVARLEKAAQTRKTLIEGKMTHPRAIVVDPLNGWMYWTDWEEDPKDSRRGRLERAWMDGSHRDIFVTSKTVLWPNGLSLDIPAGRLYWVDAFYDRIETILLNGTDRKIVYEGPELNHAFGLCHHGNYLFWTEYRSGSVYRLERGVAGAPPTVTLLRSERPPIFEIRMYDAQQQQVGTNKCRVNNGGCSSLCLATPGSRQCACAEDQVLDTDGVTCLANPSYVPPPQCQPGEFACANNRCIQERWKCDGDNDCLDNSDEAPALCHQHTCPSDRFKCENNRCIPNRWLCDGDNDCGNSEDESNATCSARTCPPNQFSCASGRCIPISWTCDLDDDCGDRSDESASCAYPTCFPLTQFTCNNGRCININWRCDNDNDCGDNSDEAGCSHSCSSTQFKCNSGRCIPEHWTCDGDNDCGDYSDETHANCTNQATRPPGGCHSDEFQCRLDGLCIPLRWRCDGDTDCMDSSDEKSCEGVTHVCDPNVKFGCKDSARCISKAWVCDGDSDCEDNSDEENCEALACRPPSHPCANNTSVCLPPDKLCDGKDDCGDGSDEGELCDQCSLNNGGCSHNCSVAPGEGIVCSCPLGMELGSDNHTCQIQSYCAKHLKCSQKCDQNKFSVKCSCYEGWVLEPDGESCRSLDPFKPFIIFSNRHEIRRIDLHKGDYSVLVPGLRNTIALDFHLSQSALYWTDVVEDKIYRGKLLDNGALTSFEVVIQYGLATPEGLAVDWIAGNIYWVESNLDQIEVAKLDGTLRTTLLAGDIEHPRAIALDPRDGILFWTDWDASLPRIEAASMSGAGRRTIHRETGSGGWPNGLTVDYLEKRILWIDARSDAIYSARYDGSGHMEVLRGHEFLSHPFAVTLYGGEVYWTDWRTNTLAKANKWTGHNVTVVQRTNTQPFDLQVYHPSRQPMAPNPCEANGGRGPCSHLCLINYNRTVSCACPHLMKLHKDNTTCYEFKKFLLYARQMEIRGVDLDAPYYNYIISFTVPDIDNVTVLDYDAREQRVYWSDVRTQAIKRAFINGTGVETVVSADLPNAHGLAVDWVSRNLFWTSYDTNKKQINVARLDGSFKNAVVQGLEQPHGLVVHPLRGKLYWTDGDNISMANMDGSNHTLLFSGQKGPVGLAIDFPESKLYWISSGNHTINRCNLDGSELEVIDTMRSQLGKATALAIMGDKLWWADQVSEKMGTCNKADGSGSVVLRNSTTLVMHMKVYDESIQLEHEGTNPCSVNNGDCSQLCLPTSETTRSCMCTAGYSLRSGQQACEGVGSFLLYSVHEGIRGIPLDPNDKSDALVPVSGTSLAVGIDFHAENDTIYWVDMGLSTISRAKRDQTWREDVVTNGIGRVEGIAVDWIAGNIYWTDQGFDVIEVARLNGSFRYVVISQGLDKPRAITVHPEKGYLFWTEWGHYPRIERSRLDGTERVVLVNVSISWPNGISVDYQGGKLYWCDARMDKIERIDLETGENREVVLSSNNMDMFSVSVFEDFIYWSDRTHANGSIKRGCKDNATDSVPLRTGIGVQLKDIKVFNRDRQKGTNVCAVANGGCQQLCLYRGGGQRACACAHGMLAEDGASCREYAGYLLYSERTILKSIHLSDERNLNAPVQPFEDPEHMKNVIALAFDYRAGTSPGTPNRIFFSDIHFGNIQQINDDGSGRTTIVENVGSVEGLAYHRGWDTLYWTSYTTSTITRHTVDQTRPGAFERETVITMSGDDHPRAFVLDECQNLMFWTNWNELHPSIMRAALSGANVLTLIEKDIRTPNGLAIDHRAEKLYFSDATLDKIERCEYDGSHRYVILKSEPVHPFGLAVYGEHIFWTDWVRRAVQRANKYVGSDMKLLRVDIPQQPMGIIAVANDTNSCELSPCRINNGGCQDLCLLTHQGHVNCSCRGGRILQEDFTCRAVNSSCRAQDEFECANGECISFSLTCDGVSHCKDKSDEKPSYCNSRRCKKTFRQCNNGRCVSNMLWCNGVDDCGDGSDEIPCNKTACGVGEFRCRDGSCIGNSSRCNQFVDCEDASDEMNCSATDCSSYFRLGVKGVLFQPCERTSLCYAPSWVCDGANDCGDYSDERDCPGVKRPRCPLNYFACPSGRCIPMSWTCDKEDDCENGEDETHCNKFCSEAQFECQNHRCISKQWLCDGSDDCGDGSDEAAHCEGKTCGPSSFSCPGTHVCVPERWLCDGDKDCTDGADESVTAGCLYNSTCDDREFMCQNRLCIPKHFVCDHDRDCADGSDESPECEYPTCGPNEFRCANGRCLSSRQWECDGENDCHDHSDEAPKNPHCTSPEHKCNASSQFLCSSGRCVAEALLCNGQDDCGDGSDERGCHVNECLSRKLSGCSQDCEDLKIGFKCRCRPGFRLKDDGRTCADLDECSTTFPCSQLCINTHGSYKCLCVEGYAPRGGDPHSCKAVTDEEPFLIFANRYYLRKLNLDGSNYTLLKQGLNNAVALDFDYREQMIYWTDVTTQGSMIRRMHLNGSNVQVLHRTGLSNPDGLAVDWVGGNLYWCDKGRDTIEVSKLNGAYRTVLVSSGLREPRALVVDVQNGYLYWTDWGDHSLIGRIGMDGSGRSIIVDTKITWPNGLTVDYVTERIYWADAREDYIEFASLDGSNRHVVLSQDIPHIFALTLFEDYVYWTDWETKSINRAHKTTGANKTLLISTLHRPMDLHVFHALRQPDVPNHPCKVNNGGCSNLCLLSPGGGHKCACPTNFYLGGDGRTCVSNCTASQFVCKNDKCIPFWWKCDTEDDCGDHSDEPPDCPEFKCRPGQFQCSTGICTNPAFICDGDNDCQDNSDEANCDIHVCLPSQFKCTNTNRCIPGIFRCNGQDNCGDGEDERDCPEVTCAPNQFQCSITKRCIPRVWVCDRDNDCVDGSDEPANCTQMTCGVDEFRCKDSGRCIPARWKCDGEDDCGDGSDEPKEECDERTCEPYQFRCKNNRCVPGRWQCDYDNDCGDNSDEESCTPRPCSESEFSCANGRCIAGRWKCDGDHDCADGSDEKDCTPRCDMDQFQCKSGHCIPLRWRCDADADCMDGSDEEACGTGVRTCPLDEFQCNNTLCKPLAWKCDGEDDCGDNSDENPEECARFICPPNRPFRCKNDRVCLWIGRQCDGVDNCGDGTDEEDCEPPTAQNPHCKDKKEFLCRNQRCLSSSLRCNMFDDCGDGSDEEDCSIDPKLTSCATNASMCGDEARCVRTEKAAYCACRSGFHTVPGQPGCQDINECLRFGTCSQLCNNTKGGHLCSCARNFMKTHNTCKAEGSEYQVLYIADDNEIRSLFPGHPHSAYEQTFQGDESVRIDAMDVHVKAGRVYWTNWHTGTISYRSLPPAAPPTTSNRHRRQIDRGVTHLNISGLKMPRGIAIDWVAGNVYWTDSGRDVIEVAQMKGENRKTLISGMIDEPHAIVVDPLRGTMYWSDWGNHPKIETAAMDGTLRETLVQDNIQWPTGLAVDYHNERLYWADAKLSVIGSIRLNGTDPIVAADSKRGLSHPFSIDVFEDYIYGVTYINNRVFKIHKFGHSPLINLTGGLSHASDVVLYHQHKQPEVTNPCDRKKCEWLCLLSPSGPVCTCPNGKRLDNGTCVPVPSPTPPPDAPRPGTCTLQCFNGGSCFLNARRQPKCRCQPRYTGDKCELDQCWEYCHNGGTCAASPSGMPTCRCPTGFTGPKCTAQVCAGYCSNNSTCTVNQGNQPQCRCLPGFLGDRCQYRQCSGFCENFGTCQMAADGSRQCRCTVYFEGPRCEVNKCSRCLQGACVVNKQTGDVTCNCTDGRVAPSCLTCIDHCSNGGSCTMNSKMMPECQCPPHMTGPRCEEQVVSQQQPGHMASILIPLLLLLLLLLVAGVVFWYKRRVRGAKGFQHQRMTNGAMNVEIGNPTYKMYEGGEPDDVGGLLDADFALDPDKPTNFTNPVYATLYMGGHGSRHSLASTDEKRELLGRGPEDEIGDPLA
molecule,measurement,setting,value
"CC1(C(=O)O)C2CCC(O2)C1(C)C(=O)O (centres unmarked) [cantharidic acid, reference compound]",Effect of phosphatase inhibitors on IGFBP-3-induced specific dephosphorylation / mobility change of IRS-2,IRS-2,did not appear to affect
"C=C1[C@@H](O)[C@@H]2O[C@]3(CC[C@H](/C=C/[C@@H](C)[C@@H]4CC(C)=C[C@@]5(O[C@H](C[C@@](C)(O)C(=O)O)CC[C@H]5O)O4)O3)CC[C@H]2O[C@@H]1[C@@H](O)C[C@H](C)[C@H]1O[C@@]2(CCCCO2)CC[C@H]1C [okadaic acid, reference compound]",Effect of phosphatase inhibitors on IGFBP-3-induced specific dephosphorylation / mobility change of IRS-2,IRS-2,effectively blocked
"NCCCCCCNS(=O)(=O)c1cccc2c(Cl)cccc12 [W-7, reference compound]",Inhibition of ^125I-α2M* binding to cells,acidic pH binding sites [1],less effective inhibitors
chondroitin sulfate A [reference compound],Inhibition of ^125I-α2M* binding,"acidic pH binding sites [2]; Mv1Lu cells, pH 5",potent inhibitors
same,^125I-α2M* binding to LRP-1,LRP-1 [3],did not significantly affect
"CC(C)C[C@@H](C=O)NC(=O)[C@H](CC(C)C)NC(=O)[C@H](CC(C)C)NC(=O)OCc1ccccc1 [MG-132, reference compound] (Cbz-Leu-Leu-Leu-aldehyde)",Effect of proteolysis inhibitors on IGFBP-3-induced mobility change of IRS-2,IRS-2,did not affect
"CSCC[C@@H](C=O)NC(=O)[C@H](CC(C)C)NC(=O)[C@H](CC(C)C)NC(C)=O [calpain inhibitor II, reference compound] (Ac-Leu-Leu-Met-aldehyde)",Effect of proteolysis inhibitors on IGFBP-3-induced mobility change of IRS-2,IRS-2,did not affect
OCCN1CCN(CCCN2c3ccccc3Sc3ccc(C(F)(F)F)cc32)CC1 [fluphenazine],Degradation of cell surface-bound ^125I-TGF-β1 or ^125I-α2M*,Mv1Lu cells [4],completely inhibits
apoE: human apoE,Specific binding of ^125I-α2M*,acidic pH binding sites [5],completely blocked
same,Specific binding of ^125I-α2M*,acidic pH binding sites [1],completely blocked
same,Specific binding of ^125I-α2M*,acidic pH binding sites [2],completely blocked
same,^125I-α2M* binding,LRP-1 [3],did not have a significant effect
same,^125I-α2M* binding,LRP-1 [6],did not have a significant effect
"CN(C)c1cccc2c(S(=O)(=O)NCCCCCN)cccc12 [monodansylcadaverine, reference compound]",Inhibition of ^125I-α2M* binding to cells,acidic pH binding sites [1],less effective inhibitors
"COC[C@@H]([C@H](O)[C@H](O)C(=O)NCC[C@H](C)c1nc(/C=C/C[C@@H]2O[C@]3(C[C@@H](O)[C@@H]2C)O[C@H]([C@H](C[C@H](O)[C@H](C)[C@H](O)[C@H](C)/C=C(C)/C(C)=C/C=C/C(C)=C\C#N)OC)[C@H](OP(=O)(O)O)C3(C)C)co1)N(C)C [calyculin A, reference compound]",Effect of phosphatase inhibitors on IGFBP-3-induced specific dephosphorylation / mobility change of IRS-2,IRS-2,did not appear to affect
"NCCCCCCNS(=O)(=O)c1cccc2ccccc12 [W-5, reference compound]",Inhibition of ^125I-α2M* binding to cells,acidic pH binding sites [1],inactive
"[O]=[V]([O-])([O-])[O-] [vanadale, reference compound]",Effect of phosphatase inhibitors on IGFBP-3-induced specific dephosphorylation / mobility change of IRS-2,IRS-2,did not appear to affect
Pseudomonas exotoxin: a ligand of LRP-1,Inhibition of ^125I-α2M* binding to cells,"acidic pH binding sites [2]; 0.5 μM, Mv1Lu cells, pH 5 or 6",did not effectively inhibit
"CC(CN1c2ccccc2Sc2ccccc21)N(C)C (centres unmarked) [promethazine, reference compound]",Degradation of cell surface-bound ^125I-TGF-β1 or ^125I-α2M*,Mv1Lu cells [4],did not exhibit any significant effect
same,Degradation of cell surface-bound ^125I-TGF-β1 or ^125I-α2M*,Mv1Lu cells [4]; listed as Promethazine,ineffective
same,Inhibition of ^125I-α2M* binding to cells,acidic pH binding sites [1],not effective
same,Inhibition of ^125I-α2M* binding,"LRP-1 [6]; MEF cells, pH 7.4",almost as effective as trifluoperazine and fluphenazine
native α2M: human α2-macroglobulin purified from plasma,IC50,"acidic pH binding sites [5]; PEA-13 cells, acidic pH, read-out: IC50, inhibition of ^125I-α2M* binding",> 400 nM
chondroitin sulfate B [reference compound],Inhibition of ^125I-α2M* binding,"acidic pH binding sites [2]; Mv1Lu cells, pH 5",potent inhibitors
same,^125I-α2M* binding to LRP-1,LRP-1 [3],did not significantly affect
"cyclo GRGDSPA (cyclic) [cyclic RGD peptide, reference compound]",Effect alone on TGF-β1-induced inhibition of DNA synthesis,Mv1Lu cells [7],Neither insulin (10 nM) nor the cyclic RGD peptide (0.01 μg/ml) alone affected
chondroitin sulfate C [reference compound],Inhibition of ^125I-α2M* binding,"acidic pH binding sites [2]; Mv1Lu cells, pH 5",potent inhibitors
same,^125I-α2M* binding to LRP-1,LRP-1 [3],did not significantly affect
heparin sulfate [reference compound],Enhancement of ^125I-α2M* binding,"acidic pH binding sites [2]; 1 μg/ml, Mv1Lu cells, pH 5",~400%
same,Inhibition of ^125I-α2M* binding,"acidic pH binding sites [2]; 10 μg/ml, Mv1Lu cells, pH 5",> 80%
same,^125I-α2M* binding to LRP-1,LRP-1 [3],did not significantly affect
microcystin [reference compound],Effect of phosphatase inhibitors on IGFBP-3-induced specific dephosphorylation / mobility change of IRS-2,IRS-2,did not appear to affect
transferrin: human transferrin,Specific binding of ^125I-α2M*,acidic pH binding sites [5],completely blocked
same,Specific binding of ^125I-α2M*,acidic pH binding sites [1],completely blocked
same,Specific binding of ^125I-α2M*,acidic pH binding sites [2],completely blocked
same,IC50,"acidic pH binding sites [2]; Mv1Lu cells, pH 5 or 6, read-out: IC50, inhibition of ^125I-α2M* binding to cells",~500 nM
same,^125I-α2M* binding,LRP-1 [3],did not have a significant effect
same,^125I-α2M* binding,LRP-1 [6],did not have a significant effect
